# Measured values reported in ChEMBL document CHEMBL3044573, “Neurological activities of lapachol and its furano derivatives from Kigelia africana” (Med Chem Res, 2013).
# Calls of active or inactive are those of the source. The calls are words filed in the database; no cut-off is given here.
# Tests used:
# Mus musculus [1] = assay: Stimulation of central nervous system in albino Mus musculus (mouse) assessed as increase in number of lines crossed at 100 mg/kg, ip administered 30 min prior to testing by open-feild test relative to control; assay type: ADME, organism-based; design: dose 100 mg/kg, route intraperitoneal; conditions: in vivo, 0.5 h
# Mus musculus [2] = assay: Antidepressant activity in albino Mus musculus (mouse) assessed as reduction in immobility time at 50 mg/kg, ip administered 30 min prior to testing by forced-swim test relative to control; assay type: functional, organism-based; design: dose 50 mg/kg
# Mus musculus [3] = assay: Anxiolytic activity in albino Mus musculus (mouse) assessed as increase in number of open arm enteries at 100 mg/kg, ip administered 30 min prior to testing by elevated-plus maze test relative to control; assay type: functional, organism-based; design: dose 100 mg/kg
# Mus musculus [4] = assay: Anxiolytic activity in albino Mus musculus (mouse) assessed as decrease in rearing behaviour at 50 mg/kg, ip administered 30 min prior to testing by open-field test relative to control; assay type: functional, organism-based; design: dose 50 mg/kg
# Mus musculus [5] = assay: Anxiolytic activity in albino Mus musculus (mouse) assessed as increase in time spent on open arm at 100 mg/kg, ip administered 30 min prior to testing by elevated-plus maze test relative to control; assay type: functional, organism-based; design: dose 100 mg/kg
# Mus musculus [6] = assay: Stimulation of central nervous system in albino Mus musculus (mouse) assessed as increase in rearing behaviour at 100 mg/kg, ip administered 30 min prior to testing by open-feild test relative to control; assay type: ADME, organism-based; design: dose 100 mg/kg, route intraperitoneal; conditions: in vivo, 0.5 h
# Mus musculus [7] = assay: Anxiolytic activity in albino Mus musculus (mouse) assessed as increase in number of open arm enteries at 50 mg/kg, ip administered 30 min prior to testing by elevated-plus maze test relative to control; assay type: functional, organism-based; design: dose 50 mg/kg
# Mus musculus [8] = assay: Anxiolytic activity in albino Mus musculus (mouse) assessed as increase in time spent on open arm at 50 mg/kg, ip administered 30 min prior to testing by elevated-plus maze test relative to control; assay type: functional, organism-based; design: dose 50 mg/kg
# Mus musculus [9] = assay: Antidepressant activity in albino Mus musculus (mouse) assessed as reduction in immobility time at 15 mg/kg, ip administered 30 min prior to testing by forced-swim test relative to control; assay type: functional, organism-based; design: dose 15 mg/kg
# Mus musculus [10] = assay: Stimulation of central nervous system in albino Mus musculus (mouse) assessed as increase in number of lines crossed at 50 mg/kg, ip administered 30 min prior to testing by open-feild test relative to control; assay type: ADME, organism-based; design: dose 50 mg/kg, route intraperitoneal; conditions: in vivo, 0.5 h
# Mus musculus [11] = assay: Antidepressant activity in albino Mus musculus (mouse) assessed as reduction in immobility time at 100 mg/kg, ip administered 30 min prior to testing by forced-swim test relative to control; assay type: functional, organism-based; design: dose 100 mg/kg
# Mus musculus [12] = assay: Stimulation of central nervous system in albino Mus musculus (mouse) assessed as increase in rearing behaviour at 50 mg/kg, ip administered 30 min prior to testing by open-feild test relative to control; assay type: ADME, organism-based; design: dose 50 mg/kg, route intraperitoneal; conditions: in vivo, 0.5 h
# Mus musculus [13] = assay: Anxiolytic activity in albino Mus musculus (mouse) assessed as decrease in rearing behaviour at 100 mg/kg, ip administered 30 min prior to testing by open-field test relative to control; assay type: functional, organism-based; design: dose 100 mg/kg
Structure (SMILES),Activity (Mus musculus [1]),Activity (Mus musculus [2]),Activity (Mus musculus [3]),Activity (Mus musculus [4]),Activity (Mus musculus [5]),Activity (Mus musculus [6]),Activity (Mus musculus [7]),Activity (Mus musculus [8]),Activity (Mus musculus [9]),Activity (Mus musculus [10]),Activity (Mus musculus [11]),Activity (Mus musculus [12]),Activity (Mus musculus [13])
CC(O)c1cc2c(o1)C(=O)c1ccccc1C2=O (stereo unspecified),Toxic,Active,Active,Active,Active,Toxic,,,,,,,
CC1(C)C=CC2=C(O1)C(=O)c1ccccc1C2=O,,,inactive,,inactive,,inactive,inactive,,,,,
CN(C)CCCN1c2ccccc2CCc2ccccc21,,,,,,,,,Active,,,,
CC[C@H](CC[C@@H](C)[C@H]1CC[C@H]2[C@@H]3CC=C4C[C@@H](O)CC[C@]4(C)[C@H]3CC[C@]12C)C(C)C [BETA-SITOSTEROL],,inactive,Active,,inactive,,Active,inactive,,Toxic,inactive,Toxic,
CC(C)=CCC1=C(O)C(=O)c2ccccc2C1=O [LAPACHOL],Toxic,Active,Active,,inactive,Toxic,Active,inactive,,,,,
CC(=O)c1cc2c(o1)C(=O)c1ccccc1C2=O [NAPABUCASIN],,Active,,Active,,,,,,Toxic,Active,,Active
